Consider seven compounds from US5622969A, “Method of treating leukotriene caused diseases with N-benzyl dihydroindole LTD4 antagonists” (Eli Lilly and Company, priority 1995, dated 1997).

In assay [1] the target is T1, leukotriene receptor (guinea pig trachea) (Cavia porcellus, UniProt Q2NNR5).
T1 construct: Trachea were cut into ring segments and the epithelium removed; from tissue; host or cells: guinea pig tracheal rings, epithelium removed (male Hartley)
T1 sequence (Q2NNR5 1-340): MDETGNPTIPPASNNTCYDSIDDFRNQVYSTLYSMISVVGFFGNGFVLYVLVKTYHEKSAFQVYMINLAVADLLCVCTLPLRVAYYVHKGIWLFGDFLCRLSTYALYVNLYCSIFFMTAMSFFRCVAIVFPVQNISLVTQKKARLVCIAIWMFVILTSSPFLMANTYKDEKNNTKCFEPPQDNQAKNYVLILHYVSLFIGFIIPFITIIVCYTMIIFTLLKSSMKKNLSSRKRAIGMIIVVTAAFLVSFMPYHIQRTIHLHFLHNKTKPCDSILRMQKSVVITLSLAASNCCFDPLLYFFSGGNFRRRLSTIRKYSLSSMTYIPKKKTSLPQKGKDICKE
As to the kind of experiment: Assay 1 - Guinea Pig Tracheae, leukotriene receptor antagonism (LTD4 contraction). To be noted: antagonist added 45 minutes prior, read-out: GP trach (pKb) (converted). How it is done:
Assay 1--Guinea Pig Tracheae
Leukotriene receptor antagonism was evaluated in isolated smooth muscles by the following procedure:
Male Hartley guinea pigs weighing 250-400 grams were asphyxiated with CO2 and exsanguinated. Trachea were excised and placed in Krebs'-bicarbonate solution of the following composition in mM/liter: NaCl, 118.2; NaHCO3, 24.8; KCl, 4.6; KH2 PO4, 1.2, MgSO4.7H2 O, 1.2; dextrose, 10.0; CaCl2.2H2 O, 2.5; 1-cysteine, 3.0, and indomethacin, 3 μM. Trachea were cut into ring segments and the epithelium removed by gently rubbing the luminal surface with a cotton swab. Tracheal rings were placed on supports constructed from two 1 inch 30 gauge disposable stainless steel hypodermic needles (Hooker, et al., 1977, Blood Vessels 14:1-11), and transferred to organ baths containing Krebs' solution maintained at 37° C. and aerated with 95% O2 and 5% CO2. Isometric measurements were made with a Grass FTO3C force-displacement transducer and recorded on a Grass polygraph as changes in grams of force. After approximately 60 minutes of equilibration, a single submaximal concentration of LTD4 (3×10^-8 M) was used to contract the trachea. Two LTD4 concentration-response curves were then generated using the cumulative response technique of Van Rossum (1963). A potential leukotriene receptor antagonist was added to the tissue bath 45 minutes prior to generation of the second LTD4 concentration-response curve.
(§1) The contractions of trachea and ilea to LTD4 in the presence of the drug was compared to responses in the absence of drug. KB values were calculated by the method of Furchgott (Ann. N.Y. Acad. Sci., 139:553, 1967) using the following equation: KB =[Antagonist]/Dose-Ratio-1.

The target in assay [2] is T2, LTD4 receptor (intestinal smooth muscle receptors, guinea pig ileum) (Cavia porcellus, UniProt Q2NNR5).
T2 construct: Terminal ilea were removed from the animals; from tissue; host or cells: guinea pig terminal ileum segments
T2 sequence (Q2NNR5 1-340): T1 sequence (Q2NNR5 1-340)
As to the kind of experiment: Assay 2 - Guinea Pig Ileum, antagonism of LTD4 contraction. The following applies: drug added 30 minutes prior, read-out: GP ileum (pKb) (converted). How it is done:
Assay 2--Guinea Pig Ileum:
Guinea pig ileum was used to determine the potency of novel LTD4 receptor antagonists on intestinal smooth muscle receptors. Terminal ilea were removed from the animals exsanguinated after CO2 asphyxiation and cut into smaller segments of approximately 2 to 3 cm. Tissues were placed in organ baths containing Krebs'bicarbonate solution prepared without indomethacin and 1-cysteine and aerated with 95% O2 and 5% CO2. After a 60 minute equilibration period, 3 submaximal contractions to histamine (3×10^-6 M) were obtained on all tissues. A cumulative concentration-response curve to LTD4 was then generated using the method of Van Rossum (Arch. Int. Pharmacodyn. Ther. 143:299, 1963). Agonist was washed from the baths and the tissues permitted to recover. After a second LTD4 concentration-response curve was produced, the ilea were washed once again and permitted to re-equilibrate. Experimental drug was added to the baths 30 minutes prior to a final LTD4 concentration-response curve.
as §1

Assay [3] addresses T3, LTD4 receptor (guinea pig lung membrane) (Cavia porcellus, UniProt Q2NNR5).
T3 construct: guinea-pig lung membrane preparation; from tissue; host or cells: guinea pig lung membranes
T3 sequence (Q2NNR5 1-340): T1 sequence (Q2NNR5 1-340)
As to the kind of experiment: Assay 3 - Guinea Pig Lung Membrane [3H] LTD4 Radioligand Binding (GPLM binding). The following applies: [3H] LTD4, guinea pig lung membrane, 30 min, 30° C., pH 6.5; for Ki: read-out: GPLM binding (pKi) (converted). How it is done: Assay 3--Guinea Pig Lung Membrane [^3 H] LTD4 Radioligand Binding: [^3 H] LTD4 was purchased from New England Nuclear (Boston, Mass.). All other chemicals were purchased from Sigma (St. Louis, Mo.). Incubations were performed in silanised glass tubes and contained 30 mg of guinea-pig lung membrane preparation (Saussy, et al., Mol. […] The binding reaction was terminated after 30 min. at 30° C. by the addition of 4 ml ice cold wash buffer (25 mM Tris --HCl, pH 7.5), followed immediately by vacuum filtration over Whatman (GF/C glass fibre filters, using a Brandel (Gaithersburg, Md.) 48 place harvester. The tubes and filter were washed 3×4 ml in cold wash buffer. Retained radioactivity was determined by liquid scintillation counting at 50% counting efficiency using Ready Protein Plus cocktail (Beckman, Fullerton, Calif.). Data were analyzed using linear regression analysis of log-logit plots of the values between 10% and 90% of control biding to calculate I[…] and slope factors (pseudo-Hill coefficients). IC50 values were corrected for radioligand concentrations (Cheng and Prusoff, Biochem. Pharmacol. 22:3099-3108, 1973) to calculate Ki values.

For the compound `Clc1ccc2ccc(/C=C/c3cccc(CN4CCc5cccc(CCc6nnn[nH]6)c54)c3)nc2c1` [Example 4, 5-[2-[1-[3-[2-E-(7-Chloroquinolin-2-yl)ethenyl]benzyl]-2,3-dihydroindol-7-yl]ethyl]-1H-tetrazole], the Kb is 28.8 nM in assay [1] and 2.34 nM in assay [2]. Moreover, the “GPLM binding (pKi)” value in assay [3] amounted to 8.3.
For `Clc1ccc2ccc(COc3cccc(CN4CCc5cccc(CCc6nnn[nH]6)c54)c3)nc2c1` [Example 5, 5-[2-[1-[3-(7-Chloroquinolin-2-ylmethoxy)benzyl]-2,3-dihydroindol-7-yl]-ethyl]-1H-tetrazole] the same measures were 8.32 nM, 3.89 nM and 8.0.
Turning to `Clc1ccc2ccc(COc3ccc(CN4CCc5cccc(CCc6nnn[nH]6)c54)cc3)nc2c1` [Example 6, 5-[2-[1-[4-(7-Chloroquinolin-2-ylmethoxy)benzyl]-2,3-dihydroindol-7-yl]-ethyl]-1H-tetrazole], the Kb in assay [1] is 25.7 nM; in assay [2], 3.24 nM. Further, the “GPLM binding (pKi)” value in assay [3] is 7.6.
For `c1cc(CN2CCc3cccc(CCc4nnn[nH]4)c32)cc(OCc2ccc3ccccc3n2)c1` [Example 7, 5-[2-[1-[3-(Quinolin-2-ylmethoxy)benzyl]-2,3-dihydroindol-7-yl]-ethyl]-1H-tetrazole] the same measures were 15.8 nM, 11.2 nM and 7.3.
`C(=C\c1ccc2ccccc2n1)/c1cccc(CN2CCc3cccc(CCc4nnn[nH]4)c32)c1` [Example 9, 5-[2-[1-[3-[2-E-(Quinolin-2-yl)ethenyl]benzyl]-2,3-dihydroindol-7-yl]ethyl]-1H-tetrazole]: the Kb in assay [2] was 2.51 nM. For the same compound, the “GPLM binding (pKi)” value in assay [3] is 7.8.
On to `Clc1ccc2ccc(/C=C/c3cccc(CN4CCc5cccc(OCc6nn[nH]n6)c54)c3)nc2c1` [Example 10, 5-[1-[3-[2-E-(7-Chloroquinolin-2-yl)ethenyl]benzyl]-2,3-dihydroindol-7-yloxymethyl]-1H-tetrazole], for which the Ki in assay [3] was 2.45 nM.
With `Clc1ccc2ccc(/C=C/c3ccc(CN4CCc5cccc(CCc6nnn[nH]6)c54)cc3)nc2c1` [Example 11, 5-[2-[1-[4-[2-E-(7-Chloroquinolin-2-yl)ethenyl]benzyl]-2,3-dihydroindol-7-yl]-ethyl]-1H-tetrazole], the Ki in assay [3] was 2.34 nM.
